Data as given in patent US5652226A (priority 1995, dated 1997).
In brackets after ≈: the same amount, converted by molar mass.

Experiments:
Type in all cases: cell-based
gram negative bacteria = experiment: microbe, parasite or virus in culture; details: read-out: GMM
Mycoplasma = experiment: microbe, parasite or virus in culture; details: read-out: MICs
[1] = test system: methicillin-susceptible staphylococci; experiment: microbe, parasite or virus in culture
Borrelia burgdorferi = experiment: microbe, parasite or virus in culture; details: Borreliella burgdorferi, read-out: MICs
Enterococcus faecalis = experiment: microbe, parasite or virus in culture
[2] = test system: gram positive and gram negative bacteria
[3] = test system: Legionella pneumophila and L. Longbeachea; experiment: microbe, parasite or virus in culture; details: read-out: MICs
Trichiomonas vaginalis = experiment: microbe, parasite or virus in culture; details: read-out: MICs
[4] = test system: methicillin-resistant staphylococci; experiment: microbe, parasite or virus in culture
[5] = test system: various strains of streptococci and enterococci resistant to vancomycin; experiment: microbe, parasite or virus in culture; details: read-out: MICs

| Compound | MIC (gram negative bacteria) | MIC (Mycoplasma) | potency relative to vancomycin [1] | MIC ([1]; read-out: GMM) | MIC (Borrelia burgdorferi) | potency relative to vancomycin (Enterococcus faecalis) | MIC (Enterococcus faecalis; Enterococcus faecalis, read-out: GMM) | cross resistance with other antibiotics [2] | MIC [3] | MIC (Trichiomonas vaginalis) | potency relative to vancomycin ([4]; more potent than vancomycin, methicillin-resistant staphylococci) | MIC ([4]; read-out: GMM) | MIC [5] |
| --- | --- | --- | --- | --- | --- | --- | --- | --- | --- | --- | --- | --- | --- |
| COC[C@H]1O[C@@H](O[C@@H]2OC[C@@H]3O[C@@]4(OC[C@@H](OC(=O)c5c(C)cc(O)cc5O)[C@@H]5OCO[C@H]54)O[C@H]3[C@H]2O)[C@@H](OC)[C@@H](O)[C@@H]1O[C@@H]1O[C@H](C)[C@H](OC)[C@H](O[C@@H]2O[C@H](C)[C@H]3O[C@]4(C[C@@H](O)[C@H](O[C@H]5C[C@@H](O[C@H]6C[C@](C)([N+](=O)[O-])[C@@H](OC)[C@H](C)O6)[C@H](OC(=O)c6c(C)c(Cl)c(O)c(Cl)c6OC)[C@@H](C)O5)[C@@H](C)O4)O[C@]3(C)[C@@H]2O)[C@H]1O [Everninomicin, everninomicin] | ≥ 760 µg/mL | ≥ 200 µg/mL | 10 fold | 0.5 µg/mL (≈ 0.306 µM) | ≤ 0.49 µg/mL | 2 fold | 0.49 µg/mL (≈ 0.3 µM) | No cross resistance with other antibiotics was observed | ≥ 2.5 µg/mL | ≥ 192 µg/mL | 10 fold | 0.1 µg/mL (≈ 0.0613 µM) | ≤ 0.5 µg/mL |
| CN[C@H](CC(C)C)C(=O)N[C@H]1C(=O)N[C@@H](CC(N)=O)C(=O)N[C@H]2C(=O)N[C@H]3C(=O)N[C@H](C(=O)N[C@H](C(=O)O)c4cc(O)cc(O)c4-c4cc3ccc4O)[C@H](O)c3ccc(c(Cl)c3)Oc3cc2cc(c3O[C@@H]2O[C@H](CO)[C@@H](O)[C@H](O)[C@H]2O[C@H]2C[C@](C)(N)[C@H](O)[C@H](C)O2)Oc2ccc(cc2Cl)[C@H]1O [vancomycin] |  |  |  |  |  |  |  |  |  |  |  |  | ≥ 128 µg/mL |
